Consider 10 compounds from patent US9309263B2, “Fused multi-cyclic sulfone compounds as inhibitors of beta-secretase and methods of use thereof” (AMGEN INC., priority 2013, dated 2016).

Data set [1] has as its target Beta Secretase enzyme (BACE) (Homo sapiens, UniProt P56817). Nature of the data set: In vitro enzymatic BACE FRET assay. In kind it is biochemical. The note with it: average IC50, in vitro enzymatic BACE FRET assay; read-out: BACE1 FRET assay IC50. A digest of the protocol: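 Enzyme (0.2 nM) pre-incubated 1 h with serially diluted inhibitors in 0.05 M acetate pH 4.2, 10% DMSO, 100 uM genapol. Reaction started with 50 nM fluorophore/quencher peptide FRET substrate, run 1 h, stopped with Tris to neutral pH. Fluorescence read at excitation 488 nm, […].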

Data set [2] concerns Aβ 40 in conditioned medium of cells stably expressing Amyloid Precursor Protein (APP). Nature of the data set: In vitro BACE cell-based assay (Aβ 40 sandwich ELISA). The note with it: Homo sapiens, HEK293; average IC50, HEK cell assay, Aβ 40 readout. A digest of the protocol: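 APP-expressing cells, 24 h pre-culture in DMEM/10% FBS, treated 24 h with 10-point compound dilutions from 100 or 10 μM top, 0.1% DMSO final. Secreted Aβ40 quantified by sandwich ELISA (pAb40 capture, biotinylated 6E10 detection, europium TRF); IC50 from percent inhibition versus concentration.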
(In general: In an ELISA, binding on a coated surface is turned into a signal by an enzyme label.)

Another data set concerns the target Cathepsin D (Cat D) (Homo sapiens, UniProt P07339). In words: In vitro enzymatic Cathepsin D (Cat D) FRET assay. In kind it is biochemical. The method in brief:
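Recombinant CHO-expressed enzyme (9 nM) pre-incubated 1 h with serially diluted inhibitor in 0.05 M citrate pH 3.5, 10% DMSO final, 5 mM CHAPS. Reaction started with 20 nM FRET peptide substrate, run 1 h, stopped with Tris to neutral pH; fluorescence read at ex 500/em 580 nm.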

A further data set relates to Abeta 40. In words: In vivo inhibition of beta-secretase: Abeta 40 reduction in CSF and brain of the rat. The note with it: 10 mpk (unless otherwise noted), after 4 hrs. From the text: In Vivo Inhibition of Beta-Secretase
Several animal models, including mouse, rat, dog, and monkey, may be used to screen for inhibition of beta-secretase activity in vivo following administration of a test compound sample. Animals used in this invention can be wild type, transgenic, or gene knockout animals. For example, the Tg2576 mouse model, prepared and conducted as described in Hsiao et al., 1996, Science 274, 99-102, and other non-transgenic or gene knockout animals are useful to analyze in vivo inhibition of Amyloid beta peptide (Abeta) production in the presence of inhibitory test compounds. Generally, 2 to 18 month old Tg2576 mice, gene knockout mice or non-transgenic animals are administered test compounds formulated in vehicles, such as cyclodextran, phosphate buffers, hydroxypropyl methylcellulose or other suitable vehicles. One to twenty-four hours following the administration of compound, animals are sacrificed, and brains as well as cerebrospinal fluid (CSF) and plasma are removed for analysis of A-beta levels and drug or test compound concentrations (Dovey et al., 2001, Journal of Neurochemistry, 76, 173-181) Beginning at time 0, animals are administered by oral gavage, or other means of delivery such as intravenous injection, an inhibitory test compound of up to 100 mg/kg in a standard, conventional formulation, such as 2% hydroxypropyl methylcellulose, 1% Tween80. A separate group of animals receive 2% hydroxypropyl methylcellulose, 1% Tween80 alone, containing no test compound, and serve as a vehicle-control group. At the end of the test period, animals are sacrificed and brain tissues, plasma or cerebrospinal fluid are collected. Brains are either homogenized in 10 volumes (w/v) of 0.2% diethylamine (DEA) in 50 mM NaCl (Best et al., 2005, Journal of Pharmacology and Experimental Therapeutics, 313, 902-908), or in 10 volumes of 0.5% TritonX-100 in Tris-buffered saline (pH at about 7.6). Homogenates are centrifuged at 355,000 g, 4° C. for 30 minutes. CSF or brain supernatants are then analyzed for the presence of A-beta peptide by specific sandwich ELISA assays based on ECL (Electrochemiluminescence) technology. For example, rat Abeta40 is measured using biotinylated-4G8 (Signet) as a capture antibody and Fab40 (an in-house antibody specific to the C-terminal of Abeta40) as a detection antibody. For example, 4 hours after administration of 30 mg/kg oral dose of the test compound in 2% hydroxypropyl methylcellulose, 1% Tween80 (pH2.2) to 200 g male Sprague Dawley rats, amyloid beta peptide levels are measured for reduction by X % and Y % in cerebrospinal fluid and brain, respectively, when compared to the levels measured in the vehicle-treated or control […].
Actual vehicles used: Oral: 2% HPMC, 1% Tween80, pH 2.2
• IV: 5% EtOH, 45% Propylene Glycol in 5% Dextrose
The compounds of the invention may be shown to reduce the formation and/or deposition of amyloid beta peptide in the cerebrospinal fluid (CSF) as well as in the brain of a mouse or rat at either 3 mpk, 10 mpk or 30 mpk (mpk=mg compound per kg weight of the animal) dosing concentrations after 4 hrs.

The subject of data set [3] is pigment epithelium of the rat's eye. The note with it: higher compound dose given for three months; cited from earlier work.
Where [4] appears, read: Cathepsin D FRET assay, read-out: CatD IC50.
Where [5] appears, read: Abeta 40 in CSF of the rat, read-out: % reduction of rat CSF levels at 10 pmk.
Where [6] appears, read: Abeta 40 in brain of the rat, read-out: % reduction of rat brain levels at 10 mpk.

Read-outs that look alike come from different tables or passages of the source.

Cathepsin D (Cat D), sequence (P07339 65-412, species assumed): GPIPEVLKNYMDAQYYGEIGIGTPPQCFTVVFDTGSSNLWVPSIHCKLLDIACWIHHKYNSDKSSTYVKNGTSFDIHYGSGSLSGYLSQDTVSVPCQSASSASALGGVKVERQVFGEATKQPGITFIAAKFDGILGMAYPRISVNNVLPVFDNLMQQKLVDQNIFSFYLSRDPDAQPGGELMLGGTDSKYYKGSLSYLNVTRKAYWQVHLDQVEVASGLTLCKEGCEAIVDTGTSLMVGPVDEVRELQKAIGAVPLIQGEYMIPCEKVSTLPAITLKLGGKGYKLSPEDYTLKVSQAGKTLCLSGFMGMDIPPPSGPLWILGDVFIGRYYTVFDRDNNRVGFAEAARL
Beta Secretase enzyme (BACE), sequence (P56817 46-501): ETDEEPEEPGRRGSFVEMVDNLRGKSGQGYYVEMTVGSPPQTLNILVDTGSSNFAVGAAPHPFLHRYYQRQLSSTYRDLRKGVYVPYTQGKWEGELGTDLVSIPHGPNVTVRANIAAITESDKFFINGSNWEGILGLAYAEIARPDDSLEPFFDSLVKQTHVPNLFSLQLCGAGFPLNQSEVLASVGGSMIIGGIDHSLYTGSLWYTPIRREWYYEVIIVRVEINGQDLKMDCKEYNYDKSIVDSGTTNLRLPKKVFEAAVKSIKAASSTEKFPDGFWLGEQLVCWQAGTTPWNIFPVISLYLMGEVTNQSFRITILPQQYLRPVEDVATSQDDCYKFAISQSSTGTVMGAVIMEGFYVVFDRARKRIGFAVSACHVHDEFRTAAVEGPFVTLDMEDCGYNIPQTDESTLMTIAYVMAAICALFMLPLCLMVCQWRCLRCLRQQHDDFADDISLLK

In general, IC50 refers to the point on the concentration scale where inhibition reaches its midpoint. For the compound `C[C@H]1C[C@@H]2[C@](C)(N=C(N)C(C)(C)S2(=O)=O)c2cc(NC(=O)c3ccc(Cl)cn3)ccc2O1` [Example 85, N-((4aR,6S,11bR)-2-amino-3,3,6,11b-tetramethyl-4,4-dioxido-4a,5,6,11b-tetrahydro-3H-[1]benzoxepino[4,5-b][1,4]thiazin-10-yl)-5-chloro-2-pyridinecarboxamide], the IC50 in data set [1] came to 0.004 µM; in data set [2] it was 0.003 µM; on Cathepsin D (Cat D) (setting [4]), 607 µM. In addition, the inhibition in vivo at 10 mg/kg stood at 79% with Abeta 40 (setting [5]) and 78% in the data set on Abeta 40 (setting [6]).

Take `C[C@H]1C[C@@H]2[C@](C)(N=C(N)C(C)(C)S2(=O)=O)c2cc(NC(=O)c3ccc(C#N)cn3)ccc2O1` [Example 86, N-((4aR,6S,11bR)-2-amino-3,3,6,11b-tetramethyl-4,4-dioxido-4a,5,6,11b-tetrahydro-3H-[1]benzoxepino[4,5-b][1,4]thiazin-10-yl)-5-cyano-2-pyridinecarboxamide]: the IC50 in data set [1] is 0.003 µM; in data set [2] it was 0.002 µM; on Cathepsin D (Cat D) (setting [4]), 1140 µM; at Cathepsin D (Cat D) (text summary referring to data in Table 2) it was greater than 1200 µM. For the same compound, the inhibition in vivo at 10 mg/kg in the data set with Abeta 40 (setting [5]) and in the data set on Abeta 40 (setting [6]) was 79% in each case.

As for `Cc1cc(C(F)(F)F)cnc1C(=O)Nc1ccc2c(c1)[C@@]1(CF)N=C(N)C(C)(C)S(=O)(=O)[C@@H]1C[C@H](C)O2` [Example 104, N-((4aR,6S,11bS)-2-amino-11b-(fluoromethyl)-3,3,6-trimethyl-4,4-dioxido-4a,5,6,11b-tetrahydro-3H-[1]benzoxepino[4,5-b][1,4]thiazin-10-yl)-3-methyl-5-(trifluoromethyl)-2-pyridinecarboxamide], the IC50 was 0.014 µM in data set [1], 0.037 µM in data set [2] and greater than 400 µM at Cathepsin D (Cat D) (setting [4]). Moreover, the inhibition in vivo at 10 mg/kg in the data set with Abeta 40 (setting [5]) came out at 36%; in the data set on Abeta 40 (setting [6]), 11%.

With `CC1(C)C[C@@H]2[C@](C)(N=C(N)C(C)(C)S2(=O)=O)c2cc(Nc3ncnc4cc(C(F)(F)F)cnc34)ccc2O1` [Example 106, (4aR,11bR)-3,3,6,6,11b-pentamethyl-N^~10^~-(7-(trifluoromethyl)pyrido[3,2-d]pyrimidin-4-yl)-4a,5,6,11b-tetrahydro-3H-[1]benzoxepino[4,5-b][1,4]thiazine-2,10-diamine 4,4-dioxide], the half-maximal inhibitory concentration (IC50) in data set [1] was found to be 0.017 µM; in data set [2] it was 0.009 µM; on Cathepsin D (Cat D) (setting [4]), 505 µM. In addition, the inhibition in vivo at 10 mg/kg in the data set with Abeta 40 (setting [5]) and in the data set with Abeta 40 (setting [6]) was 36% throughout.

With `CC1(C)C[C@@H]2[C@](C)(N=C(N)C(C)(C)S2(=O)=O)c2cc(NC(=O)c3ncc(C(F)(F)F)cc3Cl)ccc2O1` [Example 127, N-((4aR,11bR)-2-amino-3,3,6,6,11b-pentamethyl-4,4-dioxido-4a,5,6,11b-tetrahydro-3H-[1]benzoxepino[4,5-b][1,4]thiazin-10-yl)-3-chloro-5-(trifluoromethyl)-2-pyridinecarboxamide], the values for the half-inhibitory concentration (IC50) (in data set [1]; in data set [2]; on Cathepsin D (Cat D) (setting [4])) were 0.019 µM, 0.007 µM and 1020 µM, respectively. The inhibition in vivo at 10 mg/kg with Abeta 40 (setting [5]) stood at 37%; with Abeta 40 (setting [6]) it was 15%.

Turning to `C[C@H]1C[C@@H]2[C@](C)(N=C(N)C(C)(C)S2(=O)=O)c2cc(NC(=O)c3ncc(Cl)cc3Cl)ccc2O1` [Example 129, N-((4aR,6S,11bR)-2-amino-3,3,6,11b-tetramethyl-4,4-dioxido-4a,5,6,11b-tetrahydro-3H-[1]benzoxepino[4,5-b][1,4]thiazin-10-yl)-3,5-dichloro-2-pyridinecarboxamide], the values for the IC50 (in data set [1]; in data set [2]; on Cathepsin D (Cat D) (setting [4])) were 0.003 µM, 0.002 µM and 567 µM, respectively. Moreover, the inhibition in vivo at 10 mg/kg was determined as 21% with Abeta 40 (setting [5]) and 18% in the data set on Abeta 40 (setting [6]).

With `C[C@H]1C[C@@H]2[C@](C)(N=C(N)C(C)(C)S2(=O)=O)c2cc(Nc3ncnc4cc(C(F)(F)F)cnc34)ccc2O1` [Example 133, (4aR,6S,11bR)-3,3,6,11b-tetramethyl-N^~10^~-(7-(trifluoromethyl)pyrido[3,2-d]pyrimidin-4-yl)-4a,5,6,11b-tetrahydro-3H-[1]benzoxepino[4,5-b][1,4]thiazine-2,10-diamine 4,4-dioxide], the values for the IC50 (in data set [1]; in data set [2]; at Cathepsin D (Cat D) (setting [4])) were 0.01 µM, 0.005 µM and 427 µM, respectively. Besides, the values for the inhibition in vivo at 10 mg/kg with Abeta 40 (setting [5]) and with Abeta 40 (setting [6]) were 63% and 51%, respectively.

`C[C@H]1C[C@@H]2[C@](C)(N=C(N)C(C)(C)S2(=O)=O)c2cc(Nc3nccc4nc(OCc5ncco5)cnc34)ccc2O1` [Example 138, (4aR,6S,11bR)-3,3,6,11b-tetramethyl-N^~10^~-(2-(1,3-oxazol-2-ylmethoxy)pyrido[3,4-b]pyrazin-5-yl)-4a,5,6,11b-tetrahydro-3H-[1]benzoxepino[4,5-b][1,4]thiazine-2,10-diamine 4,4-dioxide]: the IC50 in data set [1] worked out at 0.004 µM; in data set [2], 0.001 µM; at Cathepsin D (Cat D) (setting [4]) it was 173 µM. The inhibition in vivo at 10 mg/kg with Abeta 40 (setting [5]) was found to be 46%; in the data set on Abeta 40 (setting [6]), 38%.

Regarding `C#CCOc1cnc2c(Nc3ccc4c(c3)[C@@]3(C)N=C(N)C(C)(C)S(=O)(=O)[C@@H]3C[C@H](C)O4)nccc2n1` [Example 140, (4aR,6S,11bR)-3,3,6,11b-tetramethyl-N^~10^~-(2-(2-propyn-1-yloxy)pyrido[3,4-b]pyrazin-5-yl)-4a,5,6,11b-tetrahydro-3H-[1]benzoxepino[4,5-b][1,4]thiazine-2,10-diamine 4,4-dioxide], the results for the IC50 (in data set [1]; in data set [2]; on Cathepsin D (Cat D) (setting [4])) were 0.002 µM, 0.002 µM and 610 µM, respectively. Further, the inhibition in vivo at 10 mg/kg with Abeta 40 (setting [5]) amounted to 71%; with Abeta 40 (setting [6]) it was 72%.

Regarding `C[C@@]1(c2cc(-c3cncnc3)c(F)cc2F)CCSC(N)=N1` [LY 2811376], the “toxicology finding in the eye” value in data set [3] was “damaged the pigment epithelium of the rat's eye”.
